Assay [1] has as its target T1, interaction between glucokinase (GK) and glucokinase regulatory protein (GKRP) (Homo sapiens, UniProt Q14397).
T1 sequence (Q14397 1-625): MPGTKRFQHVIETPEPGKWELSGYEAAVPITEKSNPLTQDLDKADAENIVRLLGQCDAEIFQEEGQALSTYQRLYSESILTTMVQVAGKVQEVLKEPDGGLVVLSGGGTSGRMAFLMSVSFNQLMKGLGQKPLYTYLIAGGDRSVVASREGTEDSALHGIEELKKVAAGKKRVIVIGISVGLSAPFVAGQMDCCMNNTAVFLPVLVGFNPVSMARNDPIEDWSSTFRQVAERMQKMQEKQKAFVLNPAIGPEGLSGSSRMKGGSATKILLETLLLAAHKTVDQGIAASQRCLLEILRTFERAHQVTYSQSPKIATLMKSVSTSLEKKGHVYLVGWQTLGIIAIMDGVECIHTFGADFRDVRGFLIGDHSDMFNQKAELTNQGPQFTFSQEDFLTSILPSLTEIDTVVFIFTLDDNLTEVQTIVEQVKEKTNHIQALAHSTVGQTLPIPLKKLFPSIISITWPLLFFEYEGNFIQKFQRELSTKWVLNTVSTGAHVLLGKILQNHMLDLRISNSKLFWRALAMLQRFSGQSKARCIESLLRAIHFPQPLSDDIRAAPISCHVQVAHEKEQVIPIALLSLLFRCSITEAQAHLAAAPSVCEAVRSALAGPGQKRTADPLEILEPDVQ
Put plainly: biochemical. It is filed as binding. As to conditions: avi-tagged GKRP, GK-fluorescein, AlphaScreen beads; read-out: GK-GKRP IC50 (Binding). In short, it runs like this:
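Measures direct GK–GKRP binding in 20 mM Tris pH 7.5 containing 1 μM sorbitol-6-phosphate, 0.05% BSA and 1 mM DTT. Compound and avi-tagged GKRP sit 20 min at room temperature before GK-fluorescein addition (6 nM in the added buffer); read after 2 h dark incubation at room temperature.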

The target in assay [2] is T2, GKRP (Glucokinase Regulatory Protein) with human His-hepatic GK (Homo sapiens, UniProt Q14397).
T2 sequence (Q14397 1-625): T1 sequence (Q14397 1-625)
The experiment in a line: biochemical. As to conditions: 13C-glucose-6-phosphate formation, 280 nM GKRP (10×), 30 nM GK (5×). In short, it runs like this: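 Product formation, 13C-glucose-6-phosphate from 13C-glucose, was measured directly by LC MS/MS after acetonitrile quench. The GK reaction ran 30 min at room temperature in Tris pH 7.5 buffer with 4 mM MgCl2 and 6% DMSO. The 5× enzyme stock was 30 nM His-tagged human hepatic glucokinase.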

[3] abbreviates: read-out: GK-GKRP EC50 (LC MS/MS-2).

pEC50, pIC50: −log10 of the molar value. Like-named read-outs stand apart in the source and are kept apart here.

By pIC50 is commonly meant the IC50 on a negative log10 scale, so that one unit is a factor of ten. Take `O=S(=O)(c1cccs1)N1CCN(c2ccc(C(O)(C(F)(F)F)C(F)(F)F)cc2C#CCCO)CC1` [Example 150, 4-(2-(4-(2-thiophenylsulfonyl)-1-piperazinyl)-5-(2,2,2-trifluoro-1-hydroxy-1-(trifluoromethyl)ethyl)phenyl)-3-butyn-1-ol]: in assay [1], the pIC50 is 6.18. Also, the pEC50 in assay [2] (setting [3]) was 6.05.
In the case of `CC(C)N(C[C@H]1CN(S(=O)(=O)c2ccc(N)s2)CCN1c1ncc(C(O)(C(F)(F)F)C(F)(F)F)cn1)S(C)(=O)=O` [Example 231, N-(((2R)-4-((5-amino-2-thiophenyl)sulfonyl)-1-(5-(2,2,2-trifluoro-1-hydroxy-1-(trifluoromethyl)ethyl)-2-pyrimidinyl)-2-piperazinyl)methyl)-N-(1-methylethyl)methanesulfonamide], the pIC50 in assay [1] was 8.15. The pEC50 in assay [2] (setting [3]) was 7.70.
Consider `CC(C)C1C(=O)NCCN1C[C@H]1CN(S(=O)(=O)c2ccc(N)s2)CCN1c1ncc(C(O)(C(F)(F)F)C(F)(F)F)cn1` (single isomer, unassigned) [Example 184 Peak #1], for which the pIC50 in assay [1] is 9.00. Also, the pEC50 in assay [2] (setting [3]) was 7.92.
`CC(O)(c1ccc(N2CCN(S(=O)(=O)c3cccs3)C[C@@H]2CS(=O)(=O)c2ccccc2)cc1)C(F)(F)F` (single isomer, unassigned) [Example 187 Peak#1]: in assay [1], the pIC50 was 7.39. Also, the pEC50 in assay [2] (setting [3]) was 7.31.
Turning to `CC(C)CN(C[C@H]1CN(S(=O)(=O)c2ccc(N)s2)CCN1c1ncc(C(O)(C(F)(F)F)C(F)(F)F)cn1)S(C)(=O)=O` [Example 229, N-(((2S)-4-((5-amino-2-thiophenyl)sulfonyl)-1-(5-(2,2,2-trifluoro-1-hydroxy-1-(trifluoromethyl)ethyl)-2-pyrimidinyl)-2-piperazinyl)methyl)-N-(2-methylpropyl)methanesulfonamide], the pIC50 in assay [1] was 9.00. The pEC50 in assay [2] (setting [3]) was 7.89.
The like results for `CC1(CN(C[C@H]2CN(S(=O)(=O)c3cccs3)CCN2c2ccc(C(C)(O)C(F)(F)F)cc2)S(C)(=O)=O)COC1` (mixture of isomers) [Example 216, N-((3-methyl-3-oxetanyl)methyl)-N-(((2S)-4-(2-thiophenylsulfonyl)-1-(4-(2,2,2-trifluoro-1-hydroxy-1-methylethyl)phenyl)-2-piperazinyl)methyl)methanesulfonamide] were, in that order, 6.76 and 6.71.
As to `O=S(=O)(c1cccs1)N1CCN(c2ccc(C(O)(C(F)(F)F)C(F)(F)F)cc2C#CCO)CC1` [Example 152, 3-(2-(4-(2-thiophenylsulfonyl)-1-piperazinyl)-5-(2,2,2-trifluoro-1-hydroxy-1-(trifluoromethyl)ethyl)phenyl)-2-propyn-1-ol], the pIC50 in assay [1] is 6.15. Moreover, the pEC50 in assay [2] (setting [3]) was 6.25.
Regarding `CC(C)CS(=O)(=O)N(C[C@H]1CN(S(=O)(=O)c2cccs2)CCN1c1ccc(C(C)(O)C(F)(F)F)cc1)c1cccnc1` (mixture of isomers) [Example 223, 2-methyl-N-3-pyridinyl-N-(((2R)-4-(2-thiophenylsulfonyl)-1-(4-(2,2,2-trifluoro-1-hydroxy-1-methylethyl)phenyl)-2-piperazinyl)methyl)-1-propanesulfonamide], the pIC50 in assay [1] was 7.46. Further, the pEC50 in assay [2] (setting [3]) was 7.07.
For `CS(=O)(=O)N(C[C@H]1CN(S(=O)(=O)c2ccc(N)nc2)CCN1c1ncc(C(O)(C(F)(F)F)C(F)(F)F)cn1)c1ccccc1` [Example 234, N-(((2R)-4-((6-amino-3-pyridinyl)sulfonyl)-1-(5-(2,2,2-trifluoro-1-hydroxy-1-(trifluoromethyl)ethyl)-2-pyrimidinyl)-2-piperazinyl)methyl)-N-phenylmethanesulfonamide], the pIC50 in assay [1] is 8.40. In assay [2] (setting [3]), the pEC50 is 7.77.
Regarding `CC(O)(c1ccc(N2CCN(S(=O)(=O)c3cccs3)C[C@@H]2CS(=O)(=O)c2ccccc2)cc1)C(F)(F)F` (single isomer, unassigned) [Example 187 Peak#2], the pIC50 in assay [1] is 7.23. The pEC50 in assay [2] (setting [3]) is 7.28.
In the case of `O=S(=O)(c1cccs1)N1CCN(c2ncc(C(O)(C(F)(F)F)C(F)(F)F)cn2)[C@@H](CN2C3COCC2C(O)C3)C1` (stereo partly drawn) [Example 79, 8-(((2S)-4-(2-thiophenylsulfonyl)-1-(5-(2,2,2-trifluoro-1-hydroxy-1-(trifluoromethyl)ethyl)-2-pyrimidinyl)-2-piperazinyl)methyl)-3-oxa-8-azabicyclo[3.2.1]octan-6-ol], in assay [1], the pIC50 was 7.41. Besides, in assay [2] (setting [3]), the pEC50 was 7.24.
Consider `CC(O)(c1ccc(N2CCN(S(=O)(=O)c3cccs3)C[C@@H]2CNC2COC2)cc1)C(F)(F)F` (mixture of isomers) [Example 206, 1,1,1-trifluoro-2-(4-((2S)-2-((3-oxetanylamino)methyl)-4-(2-thiophenylsulfonyl)-1-piperazinyl)phenyl)-2-propanol], for which the negative logarithm of the IC50 (pIC50) in assay [1] was 6.61. In assay [2] (setting [3]), the pEC50 was 6.46.
In the case of `CC(O)(c1ccc(N2CCN(S(=O)(=O)c3cccs3)C[C@@H]2CNS(=O)(=O)c2ccccc2)cc1)C(F)(F)F` (mixture of isomers) [Example 193, N-(((2S)-4-(2-thiophenylsulfonyl)-1-(4-(2,2,2-trifluoro-1-hydroxy-1-methylethyl)phenyl)-2-piperazinyl)methyl)benzenesulfonamide], the pIC50 in assay [1] was 6.55. The same compound gave a pEC50 in assay [2] (GK-GKRP EC50 (LC MS/MS-2)) of 6.43.
Consider `C[C@H]1CN(S(=O)(=O)c2ccc(N)s2)CCN1c1ncc(C(O)(C(F)(F)F)C(F)(F)F)cn1` [Example 89, 2-(2-((2S)-4-((5-amino-2-thiophenyl)sulfonyl)-2-methyl-1-piperazinyl)-5-pyrimidinyl)-1,1,1,3,3,3-hexafluoro-2-propanol], for which the pIC50 in assay [1] was 6.60. The pEC50 in assay [2] (setting [3]) was 6.79.
Consider `CC(C)CS(=O)(=O)NC[C@H]1CN(S(=O)(=O)c2cccs2)CCN1c1ccc(C(C)(O)C(F)(F)F)cc1` (mixture of isomers) [Example 210, 2-methyl-N-(((2S)-4-(2-thiophenylsulfonyl)-1-(4-(2,2,2-trifluoro-1-hydroxy-1-methylethyl)phenyl)-2-piperazinyl)methyl)-1-propanesulfonamide], for which the pIC50 in assay [1] was 6.29. Further, in assay [2] (setting [3]), the pEC50 is 6.60.
Taken in the same sequence, the figures for `CC1(C)C(=O)NCCN1C[C@H]1CN(S(=O)(=O)c2ccc(N)s2)CCN1c1ncc(C(O)(C(F)(F)F)C(F)(F)F)cn1` [Example 227, (S)-4-((4-((5-aminothiophen-2-yl)sulfonyl)-1-(5-(1,1,1,3,3,3-hexafluoro-2-hydroxypropan-2-yl)pyrimidin-2-yl)piperazin-2-yl)methyl)-3,3-dimethylpiperazin-2-one] were 8.70 and 7.68.
Taken in the same sequence, the figures for `O=S(=O)(c1nccs1)N1CCN(c2ncc(C(O)(C(F)(F)F)C(F)(F)F)cn2)[C@@H](CN2C3COCC2C(O)C3)C1` (stereo partly drawn) [Example 81, 8-(((2S)-4-(1,3-thiazol-2-ylsulfonyl)-1-(5-(2,2,2-trifluoro-1-hydroxy-1-(trifluoromethyl)ethyl)-2-pyrimidinyl)-2-piperazinyl)methyl)-3-oxa-8-azabicyclo[3.2.1]octan-6-ol] were 6.75 and 6.54.
As for `C[C@H]1CN(S(=O)(=O)c2ccccc2N)CCN1c1ncc(C(O)(C(F)(F)F)C(F)(F)F)cn1` [Example 167, (S)-2-(2-(4-(2-aminophenylsulfonyl)-2-methylpiperazin-1-yl)pyrimidin-5-yl)-1,1,1,3,3,3-hexafluoro-2-propanol], in assay [1], the pIC50 is 6.29. Moreover, the pEC50 in assay [2] (setting [3]) was 6.29.
As to `CC(C)N(C[C@H]1CN(S(=O)(=O)c2cccs2)CCN1c1ccc(C(C)(O)C(F)(F)F)cc1)S(=O)(=O)N(C)C` (mixture of isomers) [Example 209, N,N-dimethyl-N′-(1-methylethyl)-N′-(((2R)-4-(2-thiophenylsulfonyl)-1-(4-(2,2,2-trifluoro-1-hydroxy-1-methylethyl)phenyl)-2-piperazinyl)methyl)sulfamide], in assay [1], the pIC50 is 8.15. Moreover, the pEC50 in assay [2] (setting [3]) is 7.64.
Taken in the same sequence, the figures for `CC(O)(c1ccc(N2CCN(S(=O)(=O)c3cccs3)C[C@@H]2CN(Cc2cccnc2)S(C)(=O)=O)cc1)C(F)(F)F` (mixture of isomers) [Example 221, N-(3-pyridinylmethyl)-N-(((2S)-4-(2-thiophenylsulfonyl)-1-(4-(2,2,2-trifluoro-1-hydroxy-1-methylethyl)phenyl)-2-piperazinyl)methyl)methanesulfonamide] were 7.89 and 7.39.

The record behind these values is patent US8431563B2 (priority 2010, dated 2013).
